According to patent US4395553A, “Chemical compounds” (Bristol-Myers Company, priority 1982, dated 1983):

Tests used:
H2-receptor = details: cited from earlier work; for potency / effectiveness as H2-antagonist versus other H2-antagonist: compared with burimamide or metiamide
[1] = cited from earlier work
gastric acid secretion [2] = test: Gastric Antisecretory Activity in the Gastric Fistula Rat; format: in vivo, rat (male Long Evans); details: sc; for ED50: read-out: ED50 sc
Experimental: Male Long Evans rats weighing about 240-260 grams at the time of cannula implantation are used. […] The fistula components are designed and the operative procedure is carried out exactly as described in the above reference. Post operatively the animals are individually housed in solid bottom cages with sawdust and are allowed food and water ad libitum throughout the entire recovery period. Animals are not used for test purposes for at least 15 days after the operative procedure. The animals are fasted but allowed water ad libitum for 20 hours before the testing procedure is to begin. […] The catheter is then screwed into the cannula in place of the plugging screw and the rat is placed in a clear plastic rectangular cage measuring 40 cm long, 15 cm wide and 13 cm high. The bottom of the cage has a slit approximately 1.5 cm wide and 25 cm long running down the center to accommodate the catheter which hangs through it. In this way the rat is not restricted and can move freely about the cage during collection periods. The remainder of the assay is carried out as described by Ridley et al. [Research Comm. Chem. Path. […] Gastric secretions collected during the first hour after washing the stomach are discarded as they may be contaminated. For oral evaluation, the catheter is then removed from the cannula and replaced with the plugging screw. […] After this time the plugging screw is removed and replaced with a catheter to which a small plastic vial has been attached to collect the gastric secretions. A two hour sample is collected (this represents the control secretion), the catheter removed and replaced with the plugging screw. […] Forty-five minutes later the plugging screw is again removed, replaced with the catheter attached to a small plastic vial and another 2 hour sample is collected. The secretions in the second sample are compared to those of the control sample in order to determine the effects of the test drug. […] Titratable acid output is calculated in microequivalents by multiplying the volume in milliliters by the acid concentration in milliequivalents per liter. Results are expressed as percent inhibition relative to control readings. Dose response curves are constructed and ED50 values are calculated by regression analyses. At least three rats are used at each dosage level and a minimum of three dosage levels are utilized for determination of a dose response curve.

gastric acid secretion [3] = test: Gastric Antisecretory Activity in the Heidenhain Pouch Dog; format: in vivo
Experimental: Prior to surgery, hematology and blood chemistry profiles are obtained and an assessment made as to the general health of selected female dogs. Dogs are vaccinated with Tissue Vax 5 (DHLP--Pitman-Moore) and housed in general animal quarters for four weeks' observation so incipient diseases may become apparent. Dogs are fasted with water ad libitum 24 hours prior to surgery.
Anesthesia is induced with Sodium Pentothal (Abbott) 25-30 mg/kg iv. Subsequent anesthesia is maintained with methoxyflurane (Pitman-Moore). A mid-line linea alba incision from xiphoid to umbilicus provides good exposure and ease of closure. The stomach is pulled up into the operative field, the greater curvature stretched out at multiple points and clamps placed along the selected line of incision. The pouch is made from the corpus of the stomach so that true parietal cell juice is obtained. About 30% of the corpus volume is resected. The cannula is made of light-weight,biologically-inert material such as nylon or Delrin with dimensions and attachments after DeVito and Harkins [J. Appl. Physiol., 14, 138 (1959)]. Post operatively, dogs are medicated with antibiotics and an analgesic. They are allowed 2-3 months for recovery. Experiments are carried out in the following way: Dogs are fasted overnight (~18 hours) with water ad libitum prior to each experiment. The dogs are placed in a sling and a saphenous vein cannulated for drug administration. Histamine as the base (100 μg/kg/hr) and chlorpheniramine maleate (0.25 mg/kg/hr) are infused continuously (in a volume of 6 ml/hr) with a Harvard infusion pump.
Ninety minutes' infusion are allowed for the dogs to reach a steady state of acid output. At this time the drug or normal saline (control) is administered concomitantly with the secretagogue in a volume of 0.5 ml/kg over a 30 second period. When oral studies are to be carried out, the drug is administered via gastric gavage in a volume of 5 ml/kg. Infusion of the secretagogue is continued and 15 minute samples of the gastric juice are taken for 4.5 hours. Each sample is measured to the nearest 0.5 ml and titratable acidity is determined by titrating a 1 ml sample to pH 7.0 with 0.2 N NaOH, using an Autoburet and an electrometric pH meter (Radiometer).Titratable acid output is calculated in microequivalents by multiplying the volume in milliliters by the acid concentration in milliequivalents per liter.
Results are expressed as percent inhibition relative to control readings. Dose response curves are constructed and ED50 values are calculated by regression analyses. From 3 to 5 dogs are used at each dose level and a minimum of three dosage levels are utilized for determination of a dose response curve.

agranulocytosis = details: in vivo; cited from earlier work
peptic ulcer disease = details: clinical evaluation; cited from earlier work

SMILES: CNC(=S)NCCCCc1cnc[nH]1 [Burimamide]
- inhibition of gastric secretion / clinical effectiveness (H2-receptor; in animals and man): inhibits gastric secretion in animals and man
- oral absorption [1]: oral absorption is poor

SMILES: CNC(=NC#N)NCCSCc1nc[nH]c1C [Cimetidine]
- ED50 (gastric acid secretion [2]; Rattus norvegicus): 3.8 µmol/kg
- ED50 (gastric acid secretion [3]; Canis lupus familiaris, iv): 2.18 µmol/kg
- ED50 (gastric acid secretion [3]; Canis lupus familiaris, po): ~3.3 µmol/kg
- ED50 (gastric acid secretion [3]; oral): 3.29 µmol/kg
- potency / effectiveness as H2-antagonist versus other H2-antagonist (H2-receptor): as effective an H2 -antagonist as metiamide
- toxicity (agranulocytosis) (agranulocytosis): without producing agranulocytosis
- therapeutic effect in treatment of peptic ulcer disease (peptic ulcer disease): effective therapeutic agent in the treatment of peptic ulcer disease

SMILES: Nc1c(NCCCOc2cccc(CN3CCCCC3)c2)c(=O)c1=O [Example 1, 1-Amino-2-[3-(3-piperidinomethylphenoxy)propylamino]cyclobutene-3,4-dione]
- Potency Ratio (cimetidine = 1.0) (gastric acid secretion [2]; Gastric Fistula Rat): 130
- ED50 (gastric acid secretion [2]; Gastric Fistula Rat): 0.029 µmol/kg
- ED50 (gastric acid secretion [3]; Canis lupus familiaris, oral, read-out: ED50): 0.175 µmol/kg
- Potency Ratio (cimetidine = 1.0) (gastric acid secretion [3]; iv): 91
- Potency Ratio (cimetidine = 1.0) (gastric acid secretion [3]; oral): 19

SMILES: CN(C)Cc1ccc(CSCCNc2c(N)c(=O)c2=O)o1 [Example 2, 1-Amino-2-{2-[(5-dimethylaminomethyl-2-furyl)methylthio]ethylamino}cyclobutene-3,4-dione]
- Potency Ratio (cimetidine = 1.0) (gastric acid secretion [2]; Gastric Fistula Rat): ~ 2
- ED50 (gastric acid secretion [2]; Gastric Fistula Rat): ~2 µmol/kg

SMILES: CNC(=S)NCCSCc1nc[nH]c1C [Metiamide]
- potency / effectiveness as H2-antagonist versus other H2-antagonist (H2-receptor): more potent than burimamide
- oral activity in man (H2-receptor; oral, man): orally active in man
- toxicity (agranulocytosis) (agranulocytosis): toxicity (agranulocytosis)
